Laboratory results published in patent US11952365B2, “Anti-viral compounds” (Aligos Therapeutics, Inc., priority 2020, dated 2024).
pEC50, pIC50: −log10 of the molar value. Read-outs that look alike come from different tables or passages of the source.

Experiments:
[1] = system: SARS-CoV-2-GHB-03021/2020; test: microbe, parasite or virus in culture; assay type: cell-based; settings: Severe acute respiratory syndrome coronavirus 2, Vero C1008, 96 h; read-out: VeroE6 + CP (EC50)
in vitro [2] = settings: human
[3] = system: SARS-CoV-2-GHB-03021/2020; test: SARS-CoV-2 Infection Model in Huh7 Cells; assay type: cell-based; settings: Severe acute respiratory syndrome coronavirus 2, Huh-7, 96 h, SARS-CoV-2, day 4 p.i., MTS
in vitro [4] = settings: African green monkey, VeroE6 + CP (CC50), Vero E6-eGFP cells with CP-100356, absence of virus, MTS
human cathepsin L = target: T1, human cathepsin L (Homo sapiens, UniProt P07711); test: cathepsin L assay; assay type: biochemical; settings: 10 pM human cathepsin L, Z-FR-AMC 2 μM, class symbols
T1 construct: purchased R&D Systems
Method in brief: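 Reactions began by adding 2 μM (final) Z-FR-AMC substrate to 10 pM human cathepsin L that had been preincubated 30 min with inhibitor. Kinetic AMC fluorescence at 355/460 nm over 30 min at 2-min intervals; four-parameter fitting gave IC50 values.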

HRV3C = HRV3C (Human rhinovirus 14, UniProt P03303); test: HRV3C protease assay (duplex, SAMDI-MS); assay type: biochemical, HRV; settings: HRV3C, 30 mins preincubation, read-out: HRV IC50
Method in brief: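 HRV3C was preincubated 30 min with compound alongside 3CLpro at ambient temperature, then two biotinylated peptide substrates were added for 30 min. Quenching used 0.5% formic acid (final). Cleaved product was captured on neutravidin SAMDI arrays and quantified by MALDI-TOF as product/internal-standard AUC ratio; IC50 from four-parameter fit.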

[5] = Cytotoxicity plates without OC43 virus (cell-titer-glo); assay type: cell-based, human; settings: human; HeLa cells without OC43 virus, class symbols
Method in brief: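 Run as a virus-free counterpart of the OC43 cytopathic-effect assay. Attached HeLa cells received compound dilutions in EMEM with 2% FBS and were kept 6 days at 33 °C. Cell viability was then measured by CellTiter-Glo luminescence.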

3CLpro = 3CLpro (Severe acute respiratory syndrome coronavirus 2, UniProt P0DTD1); test: SARS-CoV-2 3CLpro protease assay (duplex, SAMDI-MS); assay type: biochemical; design: For the duplex assay, 3CLpro and HRV3C was added; settings: 3CLpro, 30 mins preincubation, class symbols; read-out: SARS-Cov-2 IC50
[6] = system: human beta-coronavirus OC43; test: microbe, parasite or virus in culture; assay type: cell-based; settings: Betacoronavirus 1, OC43, HeLa, 144 h, OC43 in HeLa cells, 6 days at 33° C., read-out: EC50

Row | SMILES | pEC50 [1] | CC50 (in vitro [2]) [µM] | pEC50 ([3]; numeric bounds) | CC50 (in vitro [4]; numeric bounds) [µM] | pIC50 (human cathepsin L) | pIC50 (HRV3C; bound) | CC50 at 6 days [5] [µM] | pIC50 (3CLpro) | pEC50 ([6]; bound) | pEC50 ([3]; class symbols) | pEC50 ([6]; class symbols) | CC50 (in vitro [4]; class symbols) [µM] | pIC50 (HRV3C; class symbols)
1 | COc1cccc2[nH]c(C(=O)N3C[C@@H]4CCC[C@@H]4[C@H]3C(=O)N[C@@H](CN3CC[C@H](O)C3=O)C(=O)C(=O)NC3CC3)cc12 [Compound 115, (1S,3aR,6aS)—N—((S)-4-(cyclopropylamino)-1-((S)-3-hydroxy-2-oxopyrrolidin-1-yl)-3,4-dioxobutan-2-yl)-2-(4-methoxy-1H-indole-2-carbonyl)octahydrocyclopenta[c]pyrrole-1-carboxamide] | < 4.30 | > 10 | < 4.30 | > 50 | ≤ 5.00 | < 5.00 | > 10 | 4.70 to 5.70 | < 5.00 | – | – | – | –
2 | O=C1NCC[C@H]1C[C@H](NC(=O)[C@@H]1[C@H]2CCC[C@H]2CN1C(=O)c1cc2c(Cl)ccc(C(F)(F)F)c2[nH]1)C(=O)CO [Compound 117, (1S,3aR,6aS)-2-[4-chloro-7-(trifluoromethyl)-1H-indole-2-carbonyl]-N-[(2S)-4-hydroxy-3-oxo-1-[(3S)-2-oxopyrrolidin-3-yl]butan-2-yl]-hexahydro-1H-cyclopenta[c]pyrrole-1-carboxamide] | > 6.00 | > 50 | – | > 50 | ≤ 5.00 | < 5.00 | > 10 | 6.70 to 7.70 | – | > 6.00 | 6.00 to 7.00 | – | –
3 | COc1cccc2[nH]c(C(=O)N3C[C@@H]4CCC[C@@H]4[C@H]3C(=O)N[C@@H](CN3CCCNC3=O)C(=O)C(=O)NC3CC3)cc12 [Compound 118] | < 4.30 | > 10 | < 4.30 | > 50 | ≤ 5.00 | < 5.00 | > 10 | 4.70 to 5.70 | < 5.00 | – | – | – | –
4 | COc1cccc2[nH]c(C(=O)N3C[C@@H]4CCC[C@@H]4[C@H]3C(=O)N[C@@H](Cn3cc[nH]c3=O)C(=O)C(=O)NC3CC3)cc12 [Compound 119] | < 4.30 | > 50 | < 4.30 | > 50 | ≤ 5.00 | < 5.00 | > 10 | 5.70 to 6.70 | < 5.00 | – | – | – | –
5 | O=C1NCC[C@H]1C[C@H](NC(=O)[C@@H]1[C@H]2CCC[C@H]2CN1C(=O)c1cc2c(Cl)cc(-c3ccccc3)cc2[nH]1)C(=O)CO [Compound 120, (1S,3aR,6aS)-2-(4-chloro-6-phenyl-1H-indole-2-carbonyl)-N-[(2S)-4-hydroxy-3-oxo-1-[(3S)-2-oxopyrrolidin-3-yl]butan-2-yl]-hexahydro-1H-cyclopenta[c]pyrrole-1-carboxamide] | > 6.00 | 1 to 10 | – | – | ≤ 5.00 | < 5.00 | > 10 | > 7.70 | – | > 6.00 | > 7.00 | > 10 | –
6 | O=C1NCC[C@H]1C[C@H](NC(=O)[C@@H]1[C@H]2CCC[C@H]2CN1C(=O)c1cc2c(Cl)c(F)c(Cl)cc2[nH]1)C(=O)CO [Compound 121, (1S,3aR,6aS)-2-(4,6-dichloro-5-fluoro-1H-indole-2-carbonyl)-N—((S)-4-hydroxy-3-oxo-1-((S)-2-oxopyrrolidin-3-yl)butan-2-yl)octahydrocyclopenta[c]pyrrole-1-carboxamide] | 5.00 to 6.00 | > 50 | – | > 50 | ≤ 5.00 | < 5.00 | > 10 | 6.70 to 7.70 | – | > 6.00 | > 7.00 | – | –
7 | O=C1NCC[C@H]1C[C@H](NC(=O)[C@@H]1[C@H]2CCC[C@H]2CN1C(=O)c1cc2c(Cl)c(F)cc(Cl)c2[nH]1)C(=O)CO [Compound 122, (1S,3aR,6aS)-2-(4,7-dichloro-5-fluoro-1H-indole-2-carbonyl)-N-[(2S)-4-hydroxy-3-oxo-1-[(3S)-2-oxopyrrolidin-3-yl]butan-2-yl]-hexahydro-1H-cyclopenta[c]pyrrole-1-carboxamide] | > 6.00 | > 50 | – | > 50 | ≤ 5.00 | < 5.00 | > 10 | 6.70 to 7.70 | – | > 6.00 | > 7.00 | – | –
8 | O=C1NCC[C@H]1C[C@H](NC(=O)[C@@H]1[C@H]2CCC[C@H]2CN1C(=O)c1cc2c(Oc3ccccc3)cccc2[nH]1)C(=O)CO [Compound 123, (1S,3aR,6aS)—N-[(2S)-4-hydroxy-3-oxo-1-[(3S)-2-oxopyrrolidin-3-yl]butan-2-yl]-2-(4-phenoxy-1H-indole-2-carbonyl)-hexahydro-1H-cyclopenta[c]pyrrole-1-carboxamide] | 5.00 to 6.00 | > 50 | – | > 50 | ≤ 5.00 | < 5.00 | > 10 | 6.70 to 7.70 | – | 5.00 to 6.00 | 6.00 to 7.00 | – | –
9 | COc1ccc(Br)c2[nH]c(C(=O)N3C[C@@H]4CCC[C@@H]4[C@H]3C(=O)N[C@@H](C[C@@H]3CCNC3=O)C(=O)CO)cc12 [Compound 124, (1S,3aR,6aS)-2-(7-bromo-4-methoxy-1H-indole-2-carbonyl)-N-[(2S)-4-hydroxy-3-oxo-1-[(3S)-2-oxopyrrolidin-3-yl]butan-2-yl]-hexahydro-1H-cyclopenta[c]pyrrole-1-carboxamide] | > 6.00 | > 50 | – | > 50 | ≤ 5.00 | – | > 10 | > 7.70 | – | > 6.00 | 6.00 to 7.00 | – | 4.70 to 5.70
10 | CC(C)C(=O)OCC(=O)[C@H](C[C@@H]1CCNC1=O)NC(=O)[C@@H]1[C@H]2CCC[C@H]2CN1C(=O)c1cc2c(Cl)cc(Cl)cc2[nH]1 [Compound 125, (3S)-3-{[(1S,3aR,6aS)-2-(4,6-dichloro-1H-indole-2-carbonyl)-hexahydro-1H-cyclopenta[c]pyrrol-1-yl]formamido}-2-oxo-4-[(3S)-2-oxopyrrolidin-3-yl]butyl 2-methylpropanoate] | > 6.00 | > 10 | – | > 50 | ≤ 5.00 | < 5.00 | > 10 | 5.70 to 6.70 | – | > 6.00 | > 7.00 | – | –
11 | O=C1NCC[C@H]1C[C@H](NC(=O)[C@@H]1[C@H]2CCC[C@H]2CN1C(=O)c1cc2c(OC(F)F)cc(Cl)cc2[nH]1)C(=O)CO [Compound 126, (1S,3aR,6aS)-2-[6-chloro-4-(difluoromethoxy)-1H-indole-2-carbonyl]-N-[(2S)-4-hydroxy-3-oxo-1-[(3S)-2-oxopyrrolidin-3-yl]butan-2-yl]-hexahydro-1H-cyclopenta[c]pyrrole-1-carboxamide] | 5.00 to 6.00 | > 50 | – | > 50 | ≤ 5.00 | – | > 10 | > 7.70 | – | 5.00 to 6.00 | > 7.00 | – | 4.70 to 5.70
12 | CC1(C)[C@@H]2[C@@H](C(=O)N[C@@H](C[C@@H]3CCNC3=O)C(=O)CO)N(C(=O)c3cc4c(Cl)cc(Cl)cc4[nH]3)C[C@@H]21 [Compound 127, (1R,2S,5S)-3-(4,6-dichloro-1H-indole-2-carbonyl)-N-[(2S)-4-hydroxy-3-oxo-1-[(3S)-2-oxopyrrolidin-3-yl]butan-2-yl]-6,6-dimethyl-3-azabicyclo[3.1.0]hexane-2-carboxamide] | > 6.00 | > 10 | – | > 50 | ≤ 5.00 | – | > 10 | 6.70 to 7.70 | – | > 6.00 | 6.00 to 7.00 | – | 4.70 to 5.70
13 | O=C1NCC[C@H]1C[C@H](NC(=O)[C@@H]1[C@H]2CCC[C@H]2CN1C(=O)c1cc2c(Cl)ccc(OCc3ccccc3)c2[nH]1)C(=O)CO [Compound 128, (1S,3aR,6aS)-2-[7-(benzyloxy)-4-chloro-1H-indole-2-carbonyl]-N-[(2S)-4-hydroxy-3-oxo-1-[(3S)-2-oxopyrrolidin-3-yl]butan-2-yl]-hexahydro-1H-cyclopenta[c]pyrrole-1-carboxamide] | 5.00 to 6.00 | > 10 | – | – | ≤ 5.00 | < 5.00 | > 10 | 6.70 to 7.70 | – | > 6.00 | > 7.00 | > 10 | –
